Calls of active or inactive are those of the source.
How the values were obtained:
[1] = biological target: T1, Endoribonuclease toxin MazF (Escherichia coli K-12, UniProt P0AE70); test: MazF toxin RNase activators, dose response, biochemical, fluorescence, single-stranded RNA substrate, uHTS hits (AID 588481); format: functional
T1 sequence (P0AE70 whole entry): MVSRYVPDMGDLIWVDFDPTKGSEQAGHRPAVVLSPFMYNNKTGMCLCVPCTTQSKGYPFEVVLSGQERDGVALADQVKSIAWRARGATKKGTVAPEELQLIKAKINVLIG

[2] = biological target: T2, Heat shock factor protein 1 (Mus musculus, UniProt P38532); test: inhibition of MG132-induced HSE-luciferase signal, confirmation, cell-based, NIH3T3, luminescence, dose retest (AID 2382); format: functional;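 further: NIH3T3 fibroblasts with HSF1-driven luciferase reporter stressed by proteasome inhibitor MG132; luminescence from HSF1-driven luciferase expression after 8 hours of MG132 stress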
T2 sequence (P38532 whole entry): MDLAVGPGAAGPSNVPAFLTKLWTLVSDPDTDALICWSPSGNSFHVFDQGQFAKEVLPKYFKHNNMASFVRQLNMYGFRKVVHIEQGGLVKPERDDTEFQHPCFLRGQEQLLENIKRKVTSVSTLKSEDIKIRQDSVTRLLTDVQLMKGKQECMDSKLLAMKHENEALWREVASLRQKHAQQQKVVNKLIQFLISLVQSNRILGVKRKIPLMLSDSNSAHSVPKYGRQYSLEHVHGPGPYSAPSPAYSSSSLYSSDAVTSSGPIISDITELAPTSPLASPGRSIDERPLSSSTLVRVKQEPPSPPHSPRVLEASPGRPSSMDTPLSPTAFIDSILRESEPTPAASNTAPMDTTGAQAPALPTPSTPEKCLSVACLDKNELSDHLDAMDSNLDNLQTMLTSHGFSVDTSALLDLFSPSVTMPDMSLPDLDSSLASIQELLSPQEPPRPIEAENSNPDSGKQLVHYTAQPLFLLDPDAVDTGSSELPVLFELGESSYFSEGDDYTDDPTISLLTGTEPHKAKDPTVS

[3] = biological target: T1, Endoribonuclease toxin MazF; test: fluorescent RNA oligo signal without MazF, dose response, counter-screen for MazEF activator project, biochemical, fluorescence, single-stranded RNase substrate (AID 588502); format: functional
[4] = biological target: Induced myeloid leukemia cell differentiation protein Mcl-1 (Homo sapiens, UniProt Q07820); format: functional
[5] = biological target: 72 kDa type IV collagenase (Homo sapiens, UniProt P08253); test: Dose Response validation of uHTS RPN11 inhibitor hits using a MMP-2 Fluorescence assay.; format: functional
Prothrombin = Prothrombin (Bos taurus, UniProt P00735); test: thrombin inhibition, dose response, biochemical, fluorescence polarization, uHTS hits (AID 602369); format: functional
[6] = biological target: 26S proteasome non-ATPase regulatory subunit 14 (Homo sapiens, UniProt O00487); test: inhibition of proteasome subunit RPN11 – biochemical, fluorescence polarization, uHTS hits, confirmation (AID 602368); format: functional
[7] = biological target: Heat shock protein HSP 90-alpha (Homo sapiens, UniProt P07900); format: functional, organism-based
[8] = Counterscreen for activators of the function of SWI/SNF related, matrix associated, actin dependent regulator of chromatin, subfamily a, member 2 (SMARCA2, BRM): Luminescence-based cell-based high throughput dose response assay to identify non-selective compounds using the VP16 reporter assay.; format: functional
[9] = biological target: SWI/SNF-related matrix-associated actin-dependent regulator of chromatin subfamily A member 2 (Homo sapiens, UniProt P51531); test: Luminescence-based cell-based high throughput dose response assay to identify activators of the function of SWI/SNF related, matrix associated, actin dependent regulator of chromatin, subfamily a, member 2 (SMARCA2, BRM).; format: functional
[10] = biological target: DNA dC->dU-editing enzyme APOBEC-3G (Homo sapiens, UniProt Q9HC16); format: functional;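 further: Dose-response counterscreen measuring inhibition of APOBEC3G DNA deaminase activity, run while confirming APOBEC3A inhibitors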
[11] = biological target: DNA dC->dU-editing enzyme APOBEC-3A (Homo sapiens, UniProt P31941); test: Dose Response confirmation of small molecule APOBEC3A DNA Deaminase Inhibitors via a fluorescence-based single-stranded DNA deaminase assay. [Related pubchem assays (depositor defined):AID493011, AID493024]; format: functional
[12] = growth suppression of PTEN-null colon cells, dose response, cell-based, HCT116 PTEN knockout (AID 1047); format: functional;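 further: HCT116 colon tumor cells with PTEN knocked out; cells exposed to compound for 60 hours before readout; potency for loss of cell viability measured by luminescence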
[13] = growth suppression of beta-catenin-knockout colon cells, dose response, cell-based, HCT116, human colon tumor (AID 1045); format: functional;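 further: HCT116 colon tumor cells with beta catenin knocked out; cells exposed to compound for 60 hours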
[14] = Counterscreen for inhibitors of Trypanosoma brucei methionyl tRNA synthetase (MetRS): Luminescence-based cell-based high throughput dose response assay to identify compounds that are cytotoxic to Jurkat human T lymphocyte cells.; format: functional
[15] = biological target: T3, DNA repair protein RAD52 homolog (Homo sapiens, UniProt P43351); format: functional, biochemical
T3 sequence (P43351 whole entry): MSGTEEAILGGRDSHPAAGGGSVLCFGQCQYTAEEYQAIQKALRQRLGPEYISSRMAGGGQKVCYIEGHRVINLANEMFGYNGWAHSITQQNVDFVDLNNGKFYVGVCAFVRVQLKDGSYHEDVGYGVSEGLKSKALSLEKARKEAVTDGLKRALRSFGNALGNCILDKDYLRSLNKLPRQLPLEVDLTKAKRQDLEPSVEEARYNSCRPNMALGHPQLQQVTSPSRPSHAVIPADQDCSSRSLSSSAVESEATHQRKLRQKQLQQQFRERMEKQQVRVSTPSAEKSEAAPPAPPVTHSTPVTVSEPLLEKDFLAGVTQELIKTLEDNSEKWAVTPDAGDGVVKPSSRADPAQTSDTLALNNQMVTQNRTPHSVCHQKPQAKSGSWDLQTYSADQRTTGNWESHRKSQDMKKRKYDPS

[16] = CEM21 lymphoblast cell cytotoxicity, dose response, cytotoxicity control for viral fusion inhibitor project, CellTiter-Glo luminescence, cherry-picked (AID 652042); format: functional, cell-based;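 further: potency for signal decrease meaning cytotoxicity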
[17] = inhibitors of HIV Env-driven cell fusion, dose response, cherry-pick (AID 652057); format: functional, cell-based
[18] = off-target signal loss in HeLa-CEM21 co-culture – HeLa F-luc CTL cells, cherry-picked, counter-screen for HIV-1 Env fusion inhibitor project, dose response (AID 652040); format: functional, cell-based;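 further: potency for signal decrease marking cytotoxic or nonspecific inhibition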
[19] = inhibitors of clade B AD8 Env fusion, dose response, cell-based, cherry-pick (AID 652062); format: functional;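 further: luciferase signal from cell-cell fusion driven by HIV-1 clade B AD8 Env; potency is for inhibitors of fusion seen as a drop in luminescence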
[20] = intracellular Trypanosoma cruzi inhibitors in host cells – cell-based, plate reader, cherry-pick samples, set 3, dose response (AID 651818); format: functional;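 further: compounds incubated with infected cells for about four days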
cells [21] = format: functional, cell-based
cells [22] = format: functional, cell-based; remark: listed apart in the source
[23] = biological target: T4, Trace amine-associated receptor 1 (Homo sapiens, UniProt Q96RJ0); test: Fluorescence-based cell-based high throughput dose response assay to identify agonists of the human trace amine associated receptor 1 (TAAR1).; format: functional
T4 sequence (Q96RJ0 whole entry): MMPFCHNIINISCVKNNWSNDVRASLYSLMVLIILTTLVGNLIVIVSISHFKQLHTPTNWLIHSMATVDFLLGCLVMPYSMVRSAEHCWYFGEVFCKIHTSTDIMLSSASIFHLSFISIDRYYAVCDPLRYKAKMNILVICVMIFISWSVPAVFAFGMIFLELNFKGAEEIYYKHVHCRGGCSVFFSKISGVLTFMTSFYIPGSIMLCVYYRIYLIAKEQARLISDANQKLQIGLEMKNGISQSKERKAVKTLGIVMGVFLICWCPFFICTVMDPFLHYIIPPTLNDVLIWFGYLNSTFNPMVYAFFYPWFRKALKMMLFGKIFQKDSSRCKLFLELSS

[24] = biological target: T4, Trace amine-associated receptor 1; test: Counterscreen for agonists of the human trace amine associated receptor 1 (hTAAR1): Fluorescence-based cell-based high throughput dose response assay to identify hTAAR1 agonist that also desensitize TAAR1 receptor response.; format: functional
[25] = HepG2 cell cytotoxicity, dose response, cytotoxicity control, cherry-picked samples (AID 1159577); format: functional, cell-based
[26] = P. falciparum Dd2 growth inhibitors, dose response, SYBR Green, cherry-picked samples (AID 1159567); format: functional, cell-based
[27] = P. falciparum 3D7-ScDHODH growth inhibitors, dose response, SYBR Green, dry powder samples (AID 1159570); format: functional, cell-based;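 further: parasite growth measured after 72 hours of compound exposure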
[28] = P. falciparum Dd2 growth inhibitors, dose response, SYBR Green, dry powder samples (AID 1159566); format: functional, cell-based;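 further: potency for growth inhibition with lower SYBR green DNA signal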
[29] = P. falciparum ATP4 D1247Y mutant growth inhibitors, dose response, NITD609-resistant line, SYBR Green, dry powder (AID 1159571); format: functional, cell-based;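 further: parasites synchronized at ring stage by sorbitol before testing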
[30] = HepG2 cell cytotoxicity, dose response, cytotoxicity control, plate reader, dry powder samples (AID 1159569); format: functional, cell-based;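 further: inhibitor potency with signal falling toward the positive control level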

DNA dC->dU-editing enzyme APOBEC-3A, sequence (P31941 whole entry): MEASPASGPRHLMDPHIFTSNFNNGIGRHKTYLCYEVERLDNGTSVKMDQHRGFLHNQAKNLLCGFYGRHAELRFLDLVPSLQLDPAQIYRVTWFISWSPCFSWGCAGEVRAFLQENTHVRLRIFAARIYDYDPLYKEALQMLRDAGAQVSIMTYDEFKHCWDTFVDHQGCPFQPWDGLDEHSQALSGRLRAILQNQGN
DNA dC->dU-editing enzyme APOBEC-3G, sequence (Q9HC16 whole entry): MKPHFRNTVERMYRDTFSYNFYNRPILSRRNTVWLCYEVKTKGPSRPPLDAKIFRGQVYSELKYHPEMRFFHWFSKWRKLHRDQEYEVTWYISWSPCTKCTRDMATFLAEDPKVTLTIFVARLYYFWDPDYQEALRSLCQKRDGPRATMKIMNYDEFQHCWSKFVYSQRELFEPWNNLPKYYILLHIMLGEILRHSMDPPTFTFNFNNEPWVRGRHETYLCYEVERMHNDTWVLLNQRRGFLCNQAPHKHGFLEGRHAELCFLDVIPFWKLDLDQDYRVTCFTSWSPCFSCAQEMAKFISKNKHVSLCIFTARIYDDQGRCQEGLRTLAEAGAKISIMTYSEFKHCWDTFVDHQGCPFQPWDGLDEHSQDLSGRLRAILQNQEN
26S proteasome non-ATPase regulatory subunit 14, sequence (O00487 whole entry): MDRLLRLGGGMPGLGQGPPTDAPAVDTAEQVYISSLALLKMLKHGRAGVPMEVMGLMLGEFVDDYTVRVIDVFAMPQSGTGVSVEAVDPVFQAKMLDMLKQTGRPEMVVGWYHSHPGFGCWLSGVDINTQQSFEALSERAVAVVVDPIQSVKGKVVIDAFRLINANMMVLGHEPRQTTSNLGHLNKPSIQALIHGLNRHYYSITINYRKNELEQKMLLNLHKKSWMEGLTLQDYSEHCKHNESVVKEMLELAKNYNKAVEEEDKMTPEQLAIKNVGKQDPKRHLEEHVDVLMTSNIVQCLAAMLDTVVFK
72 kDa type IV collagenase, sequence (P08253 whole entry): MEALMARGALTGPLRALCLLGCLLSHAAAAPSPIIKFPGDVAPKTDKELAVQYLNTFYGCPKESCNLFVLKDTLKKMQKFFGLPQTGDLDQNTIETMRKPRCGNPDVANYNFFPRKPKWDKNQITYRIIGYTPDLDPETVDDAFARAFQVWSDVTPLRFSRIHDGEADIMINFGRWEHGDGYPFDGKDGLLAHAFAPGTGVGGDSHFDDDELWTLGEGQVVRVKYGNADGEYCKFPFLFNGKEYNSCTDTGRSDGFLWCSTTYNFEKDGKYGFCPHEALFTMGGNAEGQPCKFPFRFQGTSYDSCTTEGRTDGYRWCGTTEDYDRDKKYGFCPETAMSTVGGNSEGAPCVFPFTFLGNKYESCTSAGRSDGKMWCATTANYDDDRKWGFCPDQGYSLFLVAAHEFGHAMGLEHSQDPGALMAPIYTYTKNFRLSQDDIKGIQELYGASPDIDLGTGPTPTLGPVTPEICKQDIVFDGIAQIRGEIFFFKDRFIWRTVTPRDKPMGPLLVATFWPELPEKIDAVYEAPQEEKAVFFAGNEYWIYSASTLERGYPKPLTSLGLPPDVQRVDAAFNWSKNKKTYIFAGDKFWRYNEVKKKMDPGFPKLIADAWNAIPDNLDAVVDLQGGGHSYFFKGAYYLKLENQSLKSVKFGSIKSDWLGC
SWI/SNF-related matrix-associated actin-dependent regulator of chromatin subfamily A member 2, sequence (P51531 whole entry): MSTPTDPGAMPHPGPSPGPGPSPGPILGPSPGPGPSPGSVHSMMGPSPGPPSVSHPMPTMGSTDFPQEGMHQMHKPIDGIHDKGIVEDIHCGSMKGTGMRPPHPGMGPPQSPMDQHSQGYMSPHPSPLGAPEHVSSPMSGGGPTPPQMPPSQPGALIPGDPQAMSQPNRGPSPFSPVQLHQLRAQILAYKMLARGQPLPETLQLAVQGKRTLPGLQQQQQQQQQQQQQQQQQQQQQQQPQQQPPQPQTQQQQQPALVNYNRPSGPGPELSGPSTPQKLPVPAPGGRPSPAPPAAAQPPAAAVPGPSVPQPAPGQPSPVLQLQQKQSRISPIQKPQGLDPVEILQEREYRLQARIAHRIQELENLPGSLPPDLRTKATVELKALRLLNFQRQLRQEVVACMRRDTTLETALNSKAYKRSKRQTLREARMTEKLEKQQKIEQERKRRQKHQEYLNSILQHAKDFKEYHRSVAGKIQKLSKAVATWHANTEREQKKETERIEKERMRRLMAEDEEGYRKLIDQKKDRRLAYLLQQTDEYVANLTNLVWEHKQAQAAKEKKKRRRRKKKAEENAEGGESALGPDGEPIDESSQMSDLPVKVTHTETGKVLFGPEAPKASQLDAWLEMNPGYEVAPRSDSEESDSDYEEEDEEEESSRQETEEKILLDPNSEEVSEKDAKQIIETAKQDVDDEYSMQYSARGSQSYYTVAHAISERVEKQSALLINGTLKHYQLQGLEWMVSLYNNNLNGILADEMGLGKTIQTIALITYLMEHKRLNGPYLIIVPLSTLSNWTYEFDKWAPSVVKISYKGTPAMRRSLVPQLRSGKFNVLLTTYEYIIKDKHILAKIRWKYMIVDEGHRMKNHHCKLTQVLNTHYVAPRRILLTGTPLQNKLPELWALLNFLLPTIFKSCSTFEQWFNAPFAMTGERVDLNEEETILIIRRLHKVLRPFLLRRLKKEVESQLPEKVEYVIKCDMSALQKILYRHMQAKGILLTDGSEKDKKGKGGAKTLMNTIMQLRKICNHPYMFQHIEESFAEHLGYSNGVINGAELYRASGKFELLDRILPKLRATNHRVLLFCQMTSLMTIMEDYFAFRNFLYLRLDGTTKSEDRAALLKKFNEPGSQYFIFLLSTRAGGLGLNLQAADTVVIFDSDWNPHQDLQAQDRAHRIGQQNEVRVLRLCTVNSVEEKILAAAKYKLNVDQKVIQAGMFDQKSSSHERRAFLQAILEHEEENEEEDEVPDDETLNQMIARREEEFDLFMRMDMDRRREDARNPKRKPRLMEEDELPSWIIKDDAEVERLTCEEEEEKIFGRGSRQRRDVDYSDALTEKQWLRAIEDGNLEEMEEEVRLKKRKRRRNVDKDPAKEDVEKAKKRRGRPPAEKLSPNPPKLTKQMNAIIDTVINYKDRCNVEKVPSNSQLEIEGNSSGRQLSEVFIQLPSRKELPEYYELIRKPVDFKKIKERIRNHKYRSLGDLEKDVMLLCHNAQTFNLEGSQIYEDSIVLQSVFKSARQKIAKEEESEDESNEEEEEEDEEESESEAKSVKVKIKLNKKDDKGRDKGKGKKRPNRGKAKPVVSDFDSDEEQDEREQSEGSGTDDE
Induced myeloid leukemia cell differentiation protein Mcl-1, sequence (Q07820 whole entry): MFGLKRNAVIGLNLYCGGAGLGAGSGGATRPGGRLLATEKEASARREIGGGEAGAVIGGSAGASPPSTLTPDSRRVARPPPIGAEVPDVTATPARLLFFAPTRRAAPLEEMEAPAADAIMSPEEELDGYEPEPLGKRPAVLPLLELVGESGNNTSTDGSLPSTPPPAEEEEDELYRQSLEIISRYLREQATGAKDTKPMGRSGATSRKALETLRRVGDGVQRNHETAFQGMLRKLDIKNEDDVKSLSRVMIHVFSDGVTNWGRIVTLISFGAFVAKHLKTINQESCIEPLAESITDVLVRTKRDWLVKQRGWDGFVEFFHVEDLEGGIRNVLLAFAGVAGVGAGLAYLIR

## NC(=O)c1c(NC(=O)C2COc3ccccc3O2)sc2c1CCN(Cc1ccccc1)C2 (stereo not given)
[1]
  EC50: 12.1 µM (active)
[2]
  EC50: > 195 µM (not active)
[3]
  EC50: 85.1 µM (inactive)

## COc1cc2[nH]c(=O)n(Cc3ccc(C(=O)NC4CCCC4)cc3)c(=O)c2cc1OC
[1]
  EC50: > 99 µM (inactive)
[3]
  EC50: > 99 µM (inactive)

## O=C1SC(SCc2ccccc2Cl)=N/C1=C\c1ccc(C(=O)O)cc1
[4]
  IC50: 5.02 µM (active)

## N#Cc1c(-c2ccco2)cc(-c2ccc(F)cc2)nc1N
[5]
  IC50: > 100 µM (inactive)
Prothrombin
  IC50: 20.9 µM (active)
[6]
  IC50: 15.8 µM (active)

## O=C(C1CCN(C2CC(=O)N(c3cccc(Cl)c3)C2=O)CC1)N1CCCC1 (stereo not given)
[7]
  AC50: 4.21 µM (active)

## O=C1CNC(=S)N1c1nc2ccccc2s1
[8]
  EC50: > 91.2 µM (inactive)
[9]
  EC50: > 91.2 µM (inactive)

## C=CCn1c(NC(=O)c2ccc(C)cc2)c(C#N)sc1=N
[10]
  IC50: 4.44 µM (active)
[11]
  IC50: 3.47 µM (active)

## COc1cccc(-n2c(SCC(N)=O)nc3ccccc3c2=O)c1
[5]
  IC50: > 100 µM (inactive)
Prothrombin
  IC50: 58.2 µM (active)
[6]
  IC50: 55.9 µM (active)

## CCC1C/C(=C\c2cccnc2)C(=O)/C(=C/c2cccnc2)C1 (stereo not given)
[12]
  EC50: 1.01 µM (active)
[7]
  AC50: 12.7 µM (active)
[13]
  EC50: 0.836 µM (active)

## Cc1ccc(C(=O)NN2C(=O)/C(=C/c3nc4ccccc4[nH]3)SC2=S)cc1
[14]
  IC50: 36.7 µM (inactive)

## O=C(c1ccc(Cn2c(=S)[nH]c3ccc(N4CCOCC4)cc3c2=O)cc1)N1CCC(N2CCCCC2)CC1
[15]
  AC50: 13.9 µM (active)

## CCn1c(SCC(=O)N2CCN(c3ccc(Cl)cc3)CC2)nc2ccccc2c1=O
[10]
  IC50: 2.57 µM (active)
[11]
  IC50: 2.83 µM (active)

## Cc1ccc(C)c(CNc2ccc(S(=O)(=O)N3CCCCC3)cc2)c1
[16]
  AC50: 63.8 µM (active)
[17]
  AC50: 50.5 µM (active)
[18]
  AC50: < 0.26 µM (active)
[19]
  AC50: 2.31 µM (active)

## C[C@H]1CN([C@@H](C)CO)C(=O)c2cccc(NC(=O)Nc3ccc(C(F)(F)F)cc3)c2O[C@H]1CN(C)Cc1ccc2c(c1)OCO2
[20]
  AC50: 1.77 µM (active)

## CCOC(=O)[C@]12CCCC=C1N(Cc1ccc3c(c1)OCO3)C(=O)[C@H](CC(=O)NCCc1ccccc1OC)C2
Cells [21]
  EC50: > 29.9 µM (inactive)
Cells [22]
  IC50: > 29.9 µM (inactive)
[23]
  EC50: 4.06 µM (active)
[24]
  IC50: 5.85 µM (active)

## C[C@H]1CN([C@@H](C)CO)C(=O)c2cccc(NC(=O)CCCCCC(=O)Nc3ccccc3N)c2O[C@H]1CN(C)Cc1ccc(C(F)(F)F)cc1
[20]
  AC50: 3.96 µM (active)

## C[C@@H]1CN([C@@H](C)CO)C(=O)c2cccc(NC(=O)Nc3ccc(F)cc3)c2O[C@@H]1CN(C)Cc1ccc(-c2ccccc2)cc1
[20]
  AC50: 3.67 µM (active)

## C[C@H]1CN([C@@H](C)CO)C(=O)c2cc(NC(=O)Nc3ccc(C(F)(F)F)cc3)ccc2O[C@@H]1CN(C)Cc1ccc(C(F)(F)F)cc1
[20]
  AC50: 3.35 µM (active)

## C/C(=N\NS(=O)(=O)c1ccc([N+](=O)[O-])cc1)c1c[nH]c2ccccc12
[1]
  EC50: 14.9 µM (active)
[3]
  EC50: > 99 µM (inactive)

## Cc1ccccc1S(=O)(=O)N1[C@H](C#N)[C@@H](c2ccc(C#CC3CCCCC3)cc2)[C@@H]1CO
[25]
  AC50: > 39 µM (inactive)
[26]
  AC50: 6.83 µM (active)

## Cc1ccc(-c2ccc([C@H]3[C@@H](CO)N4CCCCN(S(=O)(=O)c5cccc(C)c5)C[C@H]34)cc2)cc1
[25]
  AC50: 9.89 µM (active)
[26]
  AC50: 1.31 µM (active)

## COc1ccc2c3c([nH]c2c1)[C@@H](CO)N(Cc1ccncc1)CC31CCN(Cc2ccc(-c3ccccn3)cc2)CC1
[25]
  AC50: > 39 µM (inactive)
[27]
  AC50: 0.649 µM (active)
[28]
  AC50: 0.613 µM (active)
[29]
  AC50: 0.623 µM (active)
[30]
  AC50: 21.2 µM (active)
[26]
  AC50: 0.546 µM (active)

## CCC(=O)N1[C@H](CO)[C@H](c2ccc(C3=CCCCC3)cc2)[C@H]1CNC1CCCC1
[25]
  AC50: > 42 µM (inactive)
[26]
  AC50: 4.7 µM (active)

## OCCNc1nc(Nc2cccc(O)c2)nc2ccccc12
Cells [21]
  EC50: > 29.9 µM (inactive)
Cells [22]
  IC50: > 29.9 µM (inactive)
[23]
  EC50: 0.0786 µM (active)
[24]
  IC50: 0.261 µM (active)

## C[N+]1(C)[C@@H]2CC[C@H]1C[C@@H](OC(=O)C(CO)c1ccccc1)C2 (stereo not given in full)
[10]
  IC50: 3.18 µM (active)
[11]
  IC50: 2.23 µM (active)

## N=C(N)N/N=C/c1c(Cl)cccc1Cl [GUANABENZ]
Cells [21]
  EC50: > 29.9 µM (inactive)
Cells [22]
  IC50: > 29.9 µM (inactive)
[23]
  EC50: > 3.33 µM (active)
[24]
  IC50: 1.17 µM (active)

— ChEMBL document CHEMBL1201862, “PubChem BioAssay data set” (2004)
